Reference: patent publication US4714699A, “2-tolylmorpholine derivatives and pharmaceutical compositions” (Societe Anonyme Dite: Laboratoire L. Lafon, priority 1983, dated 1987)
“Also recorded” adds a separate entry of the source.

Tests used:
[1] = cardiovascular study in dogs; assay type: in vivo
[2] = cardiovascular study in rats; assay type: in vivo; settings: wake rats
[3] = interaction with apomorphine in mice; assay type: in vivo, male mice; settings: strong dose, i.p.
Method: (§1) In the following tests, CRL 40 875, in solution in distilled water, was administered intraperitoneally in a volume of 20 ml/kg to male mice and 5 ml/kg to male rats.
Groups of 6 mice receive CRL 40 875 0.5 hour before the subcutaneous injection of 1 or 16 mg/kg of apomorphine.
(§2) In the following tests, CRL 40 897, in solution in distilled water (pH 4), was administered intraperitoneally in a volume of 20 ml/kg to male mice and in a volume of 5 ml/kg to male rats, the procedures being those given above for CRL 40 875.
(§3) In the tests undertaken, CRL 40 912, in solution in distilled water (pH 4.5), was administered intraperitoneally in a volume of 20 ml/kg to male mice and in a volume of 5 ml/kg to male rats, the procedures being those given above for CRL 40 875.

[4] = interaction with amphetamine; assay type: in vivo, male rats; settings: i.p.; 2 mg/kg amphetamine; rats
Method: as §1, §2, §3

[5] = interaction with reserpine; assay type: in vivo, male mice; settings: i.p.
Method: as §1
Four hours after the intraperitoneal injection of 2.5 mg/kg of reserpine, groups of 6 mice receive CRL 40 875. The effects on the temperature and ptosis are observed.
as §2, §3

[6] = interaction with oxotremorine; assay type: in vivo, male mice; settings: strong dose, i.p.
Method: as §1
CRL 40 875 is administered to groups of 6 mice half an hour before the intraperitoneal injection of 0.5 mg/kg of oxotremorine.
as §2, §3

[7] = action on the intergroup aggressiveness; assay type: in vivo, male mice; settings: i.p., mice
Method: as §1
After they have stayed for 3 weeks in the two halves of a cage divided by an opaque partition, groups of 3 mice receive CRL 40 875. Half an hour later, the two groups from the same cage are brought together by removal of the partition, and the number of fights which occur in 10 minutes is noted.
as §2, §3

[8] = motility reduced by habituation to the enclosure; assay type: in vivo, male mice; settings: i.p.
Method: as §1
After they have stayed in the actimeters for 18 hours, the mice (6 per dose, 12 control animals) receive CRL 40 875. They are immediately returned to their respective enclosures and, half an hour later, their motility is recorded for 30 minutes.
as §2, §3

[9] = asphyxiant anoxia (gallamine triiodoethylate); assay type: in vivo, male mice; settings: i.p., mice
Method: as §1
Groups of 20 mice receive CRL 40 875 half an hour before the intraperitoneal administration of 32 mg/kg of gallamine triidoethylate (which is a reference curarizing agent).
as §2, §3

[10] = clinical trials, treatment of depressions; assay type: in vivo; settings: man
Source text: In clinical trials, good results were obtained on man with CRL 40 875 (Example 1), CRL 40 912 (Example 2) and CRL 40 897 (Example 3) in the treatment of depressions.

[11] = neuropsychopharmacological study, overall findings; assay type: in vivo, mice, rats; settings: for sedative effects: weak doses where stated
Method: as §1, §2, §3
(§4) The toxicological and neuropsychopharmacological studies undertaken in accordance with the procedures described above for CRL 40 875 enabled the following observations to be made: […]

α-adrenergic = α-adrenergic stimulation; settings: in vivo; hydrochloride
[12] = pretoxicity (LD-O, maximum non-lethal dose); assay type: in vivo, male mice; settings: intraperitoneally, male mice
Method: as §1, §2, §3, §4

[13] = overall behavior and reactivities in mice; assay type: in vivo, male mice; settings: 64 mg/kg i.p.
Method: as §1
Groups of three mice are observed before and then 15 minutes, 30 minutes, 1 hour, 2 hours, 3 hours and 24 hours after the administration of CRL 40 875.
as §2, §4

[14] = anesthetized dogs, intraduodenal (CRL 40 903: then intravenous)
[15] = intraduodenal, anesthetized dogs

Cc1cccc(C2CN(C)CCO2)c1.Cl (stereo not drawn) [CRL 40 912, 2-m-tolyl-4-methylmorpholine hydrochloride]
effect on blood pressure ([1]; 1 mg/kg i.p., anesthetized dogs): hypertensive agent
effect on hypertensive action ([1]; 5 mg/kg i.p., anesthetized dogs): this effect decreases
dose as from which bradycardia is caused ([1]; i.p., anesthetized dogs): ≥ 5 mg/kg
bradycardia [2]: bradycardia is of short duration
mean blood pressure [2]: no action on the mean blood pressure
effect on the hypothermic effects of apomorphine [3]: opposes the hypothermic effects of apomorphine
effect on stereotypies induced by amphetamine [4]: does not reduce the intensity of the stereotypies induced by amphetamine
effect on the ptosis induced by reserpine ([5]; mice): significant antagonism of the ptosis induced by reserpine
effect on the hypothermic effects of reserpine ([5]; weaker dose): opposes those of reserpine
effect on the temperature drop caused by oxotremorine [6]: opposes the hypothermic effects of apomorphine and oxotremorine
effect on aggressiveness / number of fights [7]: reduction of aggressiveness
resumption in the activity of mice accustomed to their enclosure [8]: does not cause a resumption in the motor activity of mice accustomed to their enclosure
time taken for convulsions and death to occur following asphyxiant anoxia [9]: delay in the time taken for convulsions and death to occur
results in the treatment of depressions [10]: good results
variation of sedative effects with dose ([11]; in vivo): increase continuously with the dose administered, up to a maximum value, and then decrease continuously and progressively as the dose increases
antidepressant effects ([11]; strong doses, hydrochloride): antidepressant at a strong dose; also recorded: antidepressants at strong doses
sedative effects ([11]; hydrochloride): sedative effects (hypomotility, hypothermia) comparable to those of α-adrenergic blocking substances or to clonidine; also recorded: acts as a sedative at a weak dose; also recorded: sedative effects (hypomotility, hypothermia, reduction of intergroup aggressiveness
α-adrenergic stimulant effect (α-adrenergic): effect of the α-stimulant type; also recorded: very distinct peripheral α-adrenergic stimulant action (piloerection, exophthalmos, significant antagonism of the ptosis induced by reserpine); also recorded: stimulant effects, especially of the α-adrenergic type

Cc1ccccc1C1CN(C(C)(C)C)CCO1 (stereo not drawn) [CRL 40 910, 2-o-tolyl-4-tert.-butylmorpholine]
femoral and vertebral flow rates ([1]; 0.5 mg/kg intraduodenally, anesthetized dogs): significantly increases the femoral and vertebral flow rates
effect of propanolol on the increase in femoral flow rate ([1]; anesthetized dogs, intraduodenal): not totally inhibited by propanolol
dose as from which tachycardia appears [1, 14]: 1 mg/kg
effect on the hypertension induced by noradrenaline [1, 14]: reduces the hypertension induced by noradrenaline
effect on the hypotension / effects of isoprenaline [1, 14]: does not modify the effects of isoprenaline
vasodilator property ([1]; dog, in vivo): particularly interesting as vasodilators
effect on respiration [1, 15]: stimulates respiration in dogs
rectal and skin temperatures [1, 15]: increase progressively
tachycardia, degree [1, 15]: remains weak
venous pressure [1, 15]: increase progressively, as does the venous pressure
effect of propanolol on the effects on heart beat and vertebral flow rate ([1]; propanolol 1 mg/kg intravenously, anesthetized dogs): antagonized by propanolol
LD-O (maximum non-lethal dose) [12]: greater than 128 mg/kg
hypothermia ([13]; male mice): moderate hypothermia
duration of hypothermia ([13]; mice): 0.5 h
sedative effects [11]: sedative effects
